Data: PubChem BioAssay AID1053191 (Broad Institute, 2014)
Records with an inconclusive call do not appear. The source made the active and inactive calls.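 Rule for the calls: active = compounds whose fitted half-maximal potency for killing cells lies within twice their highest tested dose; inconclusive = flat curve with 30 to 70% signal loss, or poor fit; inactive = the rest.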

Test system: not listed separately
Assay: HEK293 cell viability loss – dry powder samples, cytotoxicity control, dose response (AID 1053191)
Conditions: HEK293T viability, ATP luminescence, 72 h; at 50 µM (top of the series)

Structure (SMILES)	activity change, negative = cytotoxic
Cc1cc(C)c(S(=O)(=O)NCCn2c(C)cc3ccccc32)c(C)c1	-16.1% (inactive)
COc1cc(CC2C(=O)Nc3ccccc32)cc(C)c1O (centres undefined)	-16.6% (inactive)
CCc1cccc2c1NC1(CCCC1)CC2C (centres undefined)	-4.91% (inactive)
COc1ccc(Nc2ccccc2N)cc1	-11.7% (inactive)
O=C(O)C1CCN(c2nc(-c3ccccc3)c3cc(Br)ccc3n2)CC1	13.4% (inactive)
Cc1ccc(CSc2nc3[nH]ncc3c(=O)[nH]2)cc1	-29.4% (inactive)
Cc1ccc(S(=O)(=O)NCc2ccc3c(c2)cc(C)n3C)cc1	-7.83% (inactive)
CNc1ccccc1C(C)(C)c1cc(-c2cccc(OC)c2)no1	-41.9% (inactive)
CCc1ccc(-n2c(=S)sc3c(=O)n(-c4ccccc4C)c(SCC(=O)O)nc32)cc1	12.6% (inactive)
Cc1cc2cc(CNC(=O)Nc3ccc(Cl)c(Cl)c3)ccc2n1C	-15.7% (inactive)
Cc1cccc(NC(=O)NCc2ccc3c(c2)cc(C)n3C)c1	-22.6% (inactive)
OCc1ccc(-c2nn(Cc3ccccc3)c3ccccc23)o1	4.83% (inactive)
Cc1cc2ccccc2n1CCNC(=O)COc1ccc2ccccc2c1	-12.6% (inactive)

Test system: HEK293T viability, ATP luminescence, 72 h
Assay: as above
Conditions: not given

Structure (SMILES)	AC50 [µM]
O=C(c1c(F)cccc1F)N(Cc1ccccc1)Cc1ccccc1	50
